Data from patent publication US12612389B2, “Benzofuran-based N-acylhydrazone derivative and pharmaceutical composition comprising same” (KOREA RESEARCH INSTITUTE OF BIOSCIENCE AND BIOTECHNOLOGY, priority 2019, dated 2026).
Like-named read-outs stand apart in the source and are kept apart here.

Key:
HeLa cells = assay: Anti-proliferative activity test in HeLa cell line (MTT); format: cell-based; conditions: Homo sapiens, 48 h, grown for 2 days, mean of 2
Description: HeLa cells (American Type Culture Collection: ATCC, USA), a human cervical cancer cell line, were seeded in a 96-well plate at 3×10^3 cells/well, and the cells were then treated with compounds of Examples or Comparative Example according to the present invention and grown for 2 days. Then, MTT (3-(4,5-dimethylthiazol-2-yl)-2,5-diphenyltetrazolium bromide) reagent was added at 10 μL/well. After 2 hours, absorbance was measured at “OD 450” and statistical values were obtained using Prism™6 program. The data shown in Table below are mean values of results obtained by repeating the analysis twice.

HeLa CCL2 tumor = assay: Anticancer effect test in human cervical cancer cell (HeLa CCL2) transplantation model; format: in vivo, BALB/C female nude mouse; conditions: 25 mg/kg intraperitoneally, p<0.001; for tumor growth inhibition: 0-28 days, Day 28, tumor size; for reduction in tumor weight compared with solvent control: excised tumor
Description: After thawing the human […] cancer cell line HeLa CCL2 that was stored frozen in liquid nitrogen, cell culture was performed. The cells were cultured for an appropriate period in a CO2 incubator (Forma, USA) at a temperature of 37° C. and a CO2 concentration of 5%.
On the last day of culture, all cancer cells were collected and counted, and the cell concentration was adjusted to 1×10^7 cells/mL using serum free media. The cell culture solution as adjusted above was injected subcutaneously into the axillary region between the shoulder blade and the chest wall in an amount of 0.3 mL (3×10^6 cells/mouse) per BALB/C female nude mouse (5 weeks old, Nara Biotech).
Immediately prior to administration, the compounds were dissolved in a mixture of DMAC (dimethylacetamide) 20%+Tween80 5%+20% HPbCD (2-hydroxypropyl-β-cyclodextrin) 75% at an appropriate concentration and used. The prepared substances were repeatedly administered intraperitoneally in an amount of 0.2 mL (10 mL/kg) per 20 g of a mouse according to the following administration schedule. • carrier, the compound of Example 4, the compound of Example 8, and the compound of Example 15 (25 mg/kg), 0-28 days 4.3. Confirmation of Change in Tumor Size
After cancer cell transplantation, the tumor size of each animal subject was measured a total of 11 times in 3 directions using a vernier caliper from when the mean tumor size reached 57.0 mm^3 until Day 28, and calculated by the formula of length×width×height/2.
In order to test the degree of toxicity upon repeated intraperitoneal administration of the Example compound to HeLa CCL2 cancer cell transplantation nude mice, general symptoms and body weight changes of the animal subjects were observed during the administration period.
On Day 28 after drug administration, blood was collected from the mouse ophthalmic veins in 2 hours post the last administration, and the mice were killed using CO2 gas. Images of the mice were taken, and the tumor was separated and weighed on an electronic scale. After taking the images, each tumor was divided in half and fixed in liquid nitrogen and formalin, respectively. On […] after drug administration, the HeLa CCL2 tumor was excised and weighed.

Stability test in plasma [1] = format: in vitro ADME; design: Residue % (180 minutes elapsed), Mean: dose or concentration left out as unconfirmed; conditions: 37° C.
Description: In order to test the stability (in vivo) of the Example compounds according to the present invention, the compounds of Examples 2, 3, 4, 8 and 15 were administered intravenously, and plasma concentrations over time were observed. In addition, procaine was used as a positive control. Plasma stability was measured three times by administering the test compound at a concentration […] to human, rat, or mouse plasma (90 μL) at 37° C. Results thereof are shown in Table below and FIGS. 3A to 3E.

Stability test in plasma [2] = format: in vitro ADME; conditions: Rat plasma, 37° C.; for Residue % (180 minutes elapsed), Mean: 5 mM
Description: In order to test the stability (in vivo) of the Example compounds according to the present invention, the compounds of Examples 2, 3, 4, 8 and 15 were administered intravenously, and plasma concentrations over time were observed. In addition, procaine was used as a positive control. Plasma stability was measured three times by administering the test compound at a concentration of 5 mM to human, rat, or mouse plasma (90 μL) at 37° C. Results thereof are shown in Table below and FIGS. 3A to 3E.

[3] = Metabolic stability test in liver microsomes; format: in vitro ADME; conditions: 0.5 mg protein/mL, 37° C.
Description: (§1) The test compounds at a concentration of […] were administered in the presence or absence of NADPH (1 mM) to liver […] (0.5 mg protein/mL) of humans, rats and mice, and metabolic stability was tested at 37° C. for 30 minutes. In addition, buspirone was used as a positive control. Results thereof are shown in Table below and FIGS. 4A to 4E.

[4] = Stability in buffer (line of the metabolic stability test); format: in vitro ADME
Description: as §1

[5] = Solubility test in administration solvent; format: physicochemical; conditions: 2.0 mg/mL, Solvent A 20%
Description: The test substances were accurately weighed and placed in a glass vial. Then, solvent A was added in an amount corresponding to 20% of the desired final solution volume, and the mixture was completely dissolved by treatment with a vortexer and sonication. Next, solvent B in an amount corresponding to 10% or 20% of the final solution volume was added and mixed well. […] Finally, the mixture was subjected to sonication for 30 seconds. The mixed solution was prepared and used immediately before administration in the experiment. • Solvent A: Dimethylacetamide produced by SigmaAldrich • Solvent B: Cremophor EL produced by SigmaAldrich • Solvent C: 20% HPbCD ((2-Hydroxypropyl)-β-cyclodextrin produced by SigmaAldrich) in deionized water

[6] = Pharmacokinetic (PK) test; format: in vivo, male ICR mice; conditions: for F, Mean: Oral 20 mg/kg vs intravenous 5 mg/kg, calculated using AUClast; for CL, Mean / Vd / AUC(0-inf) / AUC(0-t) / clearance / MRT inf / half-life / Cmax / Tmax: mice, n=3; for Vd / AUC(0-inf) / AUC(0-t) / clearance / MRT inf / half-life / Cmax / Tmax: male, ICR, mouse, plasma; for Vd: iv; for AUC(0-inf): read-out: AUCinf, Mean; for AUC(0-t): read-out: AUClast, Mean; for clearance: read-out: CL, Mean (converted); for MRT inf: read-out: MRTinf, Mean; for half-life: read-out: t1/2, Mean (converted)
Description: Pharmacokinetic (PK) parameters of the Example compounds according to the present invention were determined using male ICR mice as follows (n=3).
Pharmacokinetic (PK) parameters were measured by non-compartmental analysis of plasma concentration-time curves using Kinetica™ 4.4.1 (Thermo Fisher Scientific, USA). Results thereof are shown in Table below and FIGS. 5A to 5C. In Table below, “F” parameter was calculated using AUClast, “N/A” indicates the phrase not applicable, and “NC” indicates the phrase not calculated.

[7] = 5 mg/kg, Intravenous administration, 5 mg/kg, read-out: Vss, Mean
[8] = 5 mg/kg, Intravenous administration, 5 mg/kg, read-out: Vz, Mean
[9] = Intravenous administration, 5 mg/kg

## CCOCCn1c(Cl)c(/C=N/NC(=O)c2cc3cc(C)ccc3o2)c2ccccc21 [Example 4, (E)-N′-[(2-chloro-1-(2-ethoxyethyl)-1H-indol-3-yl]methylene}-5-methylbenzofuran-2-carbohydrazide]
HeLa cells
  IC50: 180 nM
HeLa CCL2 tumor
  tumor growth inhibition: 56.71%
  reduction in tumor weight compared with solvent control: 57.1%
Stability test in plasma [1]; Human plasma
  Residue % (180 minutes elapsed), Mean: 49.41%
  half-life at 5 mM: > 180 min
Stability test in plasma [1]; Mouse plasma
  Residue % (180 minutes elapsed), Mean: 60.44%
  half-life at 5 mM: > 180 min
Stability test in plasma [2]
  half-life at 5 mM: > 180 min
  Residue % (180 minutes elapsed), Mean: 67.11%
[3]; Human, +NADPH
  Residue (%) after culturing for 30 min: 15.76 ± 0.89%
[3]; Human, −NADPH
  Residue (%) after culturing for 30 min: 77.60 ± 1.39%
[3]; Mouse, +NADPH
  Residue (%) after culturing for 30 min: 5.48 ± 0.04%
[3]; Mouse, −NADPH
  Residue (%) after culturing for 30 min: 47.95 ± 2.93%
[3]; Rat, +NADPH
  Residue (%) after culturing for 30 min: 3.23 ± 0.55%
[3]; Rat, −NADPH
  Residue (%) after culturing for 30 min: 69.63 ± 1.94%
[4]
  Residue (%) after culturing for 30 min: 100.93 ± 11.79%
[5]; Solvent B 10%, Solvent C 70% (dimethylacetamide/Cremophor EL/20% HPbCD)
  Solubility evaluation result: Soluble
[6]
  F, Mean: 4.8%
[6]; Oral administration, 20 mg/kg
  CL, Mean: 1152 mL/min/kg
  Cmax: 431 ng/mL
  Tmax: 15 min
  AUC(0-inf): 295 ng·h/mL
  AUC(0-t): 285 ng·h/mL
  MRT inf: 42 min
  half-life: 24 min
[6]; [7]
  Vd: 0.98 L/kg
[6]; [8]
  Vd: 1.88 L/kg
[6]; [9]
  AUC(0-inf): 1500 ng·h/mL
  AUC(0-t): 1480 ng·h/mL
  clearance: 55.7 mL/min/kg
  MRT inf: 17.4 min
  half-life: 23.4 min

## CCOCCn1c(Cl)c(/C=N/NC(=O)c2cc3cc(C)ccc3o2)c2cc(OC)ccc21 [Example 8, (E)-N′-[(2-chloro-1-(2-ethoxyethyl)-5-methoxy-1H-indol-3-yl]methylene}-5-methylbenzofuran-2-carbohydrazide]
HeLa cells
  IC50: 82 nM
HeLa CCL2 tumor
  tumor growth inhibition: 38.35%
  reduction in tumor weight compared with solvent control: 40.5%
Stability test in plasma [1]; Human plasma
  Residue % (180 minutes elapsed), Mean: 26.05%
  half-life at 5 mM: > 180 min
Stability test in plasma [1]; Mouse plasma
  Residue % (180 minutes elapsed), Mean: 74.16%
  half-life at 5 mM: > 180 min
Stability test in plasma [2]
  half-life at 5 mM: > 180 min
  Residue % (180 minutes elapsed), Mean: 49.25%
[3]; Human, +NADPH
  Residue (%) after culturing for 30 min: 24.11 ± 0.46%
[3]; Human, −NADPH
  Residue (%) after culturing for 30 min: 99.18 ± 1.92%
[3]; Mouse, +NADPH
  Residue (%) after culturing for 30 min: 11.41 ± 2.47%
[3]; Mouse, −NADPH
  Residue (%) after culturing for 30 min: 89.93 ± 6.72%
[3]; Rat, +NADPH
  Residue (%) after culturing for 30 min: 4.55 ± 0.94%
[3]; Rat, −NADPH
  Residue (%) after culturing for 30 min: 85.58 ± 3.34%
[4]
  Residue (%) after culturing for 30 min: 98.98 ± 2.07%
[5]; Solvent B 20%, Solvent C 60% (dimethylacetamide/Cremophor EL/20% HPbCD)
  Solubility evaluation result: Soluble
[6]
  F, Mean: 1.0%
[6]; Oral administration, 20 mg/kg
  CL, Mean: 3265.3 mL/min/kg
  Cmax: 93.9 ng/mL
  Tmax: 34.8 min
  AUC(0-inf): 103 ng·h/mL
  AUC(0-t): 96.3 ng·h/mL
  MRT inf: 54 min
  half-life: 24 min
[6]; [7]
  Vd: 0.5 L/kg
[6]; [8]
  Vd: 0.85 L/kg
[6]; [9]
  AUC(0-inf): 2390 ng·h/mL
  AUC(0-t): 2380 ng·h/mL
  clearance: 35 mL/min/kg
  MRT inf: 14.4 min
  half-life: 16.8 min
